Data taken from patent US12570662B2, “Substituted pyrrolo[1,2-b]pyridazines as bifunctional degraders of interleukin-1 receptor-associated kinases” (Nurix Therapeutics, Inc., priority 2021, dated 2026).
Like-named read-outs stand apart in the source and are kept apart here.

Molecular target: T1, IRAK4 (Homo sapiens, UniProt Q9NWZ3)
T1 construct: C-terminal HiBiT-tagged Jurkat cells (polyclonal cell line or clone 8D5); endogenous in cells; host or cells: Jurkat cells (polyclonal cell line or clone 8D5), HiBiT-tagged
T1 sequence (Q9NWZ3 1-460): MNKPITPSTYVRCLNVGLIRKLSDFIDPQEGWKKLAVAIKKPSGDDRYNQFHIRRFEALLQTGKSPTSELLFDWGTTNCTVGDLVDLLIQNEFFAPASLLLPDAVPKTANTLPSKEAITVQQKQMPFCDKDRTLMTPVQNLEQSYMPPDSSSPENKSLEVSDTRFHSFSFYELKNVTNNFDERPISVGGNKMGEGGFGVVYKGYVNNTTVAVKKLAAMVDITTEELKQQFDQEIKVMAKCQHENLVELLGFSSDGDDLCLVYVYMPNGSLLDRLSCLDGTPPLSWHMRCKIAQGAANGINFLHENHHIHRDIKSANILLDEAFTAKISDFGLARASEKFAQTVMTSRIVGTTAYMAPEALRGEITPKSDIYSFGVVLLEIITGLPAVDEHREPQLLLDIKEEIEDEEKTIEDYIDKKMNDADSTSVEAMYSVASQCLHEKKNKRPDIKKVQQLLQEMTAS
Assay: IRAK4 Degradation HiBit Assay
Assay type: cell-based
Conditions: C-terminal HiBiT-tagged Jurkat cells, 4 hrs incubation; for DC50: % IRAK4 remaining, four-parameter fit (IC50 used as DC50); for Dmax: from fit of % IRAK4 remaining
Procedure, shortened: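 Jurkat cells carrying C-terminal HiBiT-tagged IRAK4 (polyclonal or clone 8D5) exposed to compound, 10 μM–0.1 nM final over 11 points, for 4 h at 32 °C. Remaining IRAK4 measured by lytic HiBiT/LgBiT luminescence relative to DMSO. DC50 and Dmax taken from four-parameter variable-slope fits.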

Dmax [%]	SMILES	DC50 [nM]	Dmax (read-out: Dmax) [%]
–	N#Cc1cnn2c(-c3cc(NC4CCOCC4)c(-c4nnc(N5CC6(CCN(CC7CCN(c8ccc(C9CCC(=O)NC9=O)cn8)CC7)CC6)C5)s4)cn3)ccc2c1 (racemic) [Example 88, rac-7-[5-(5-{7-[(1-{5-[(3R)-2,6-dioxopiperidin-3-yl]pyridin-2-yl}piperidin-4-yl)methyl]-2,7-diazaspiro[3.5]nonan-2-yl}-1,3,4-thiadiazol-2-yl)-4-[(oxan-4-yl)amino]pyridin-2-yl]pyrrolo[1,2-b]pyridazine-3-carbonitrile]	11	115
–	CCNc1cc(-c2ccc3cc(C#N)cnn23)ncc1-c1nnc(N2CC3CCC(C2)N3CC2CCN(c3ccc([C@H]4CCC(=O)NC4=O)cn3)CC2)s1 (racemic) [Example 89, rac-7-[5-(5-{8-[(1-{5-[(3R)-2,6-dioxopiperidin-3-yl]pyridin-2-yl}piperidin-4-yl)methyl]-3,8-diazabicyclo[3.2.1]octan-3-yl}-1,3,4-thiadiazol-2-yl)-4-(ethylamino)pyridin-2-yl]pyrrolo[1,2-b]pyridazine-3-carbonitrile]	24	112
–	N#Cc1cnn2c(-c3cc(NC4CCOCC4)c(-c4nnc(C56CCC(CN7CCc8cc(C9CCC(=O)NC9=O)ccc8C7)(CC5)CC6)s4)cn3)ccc2c1 (racemic) [Example 90, rac-7-(5-{5-[4-({6-[(3R)-2,6-dioxopiperidin-3-yl]-1,2,3,4-tetrahydroisoquinolin-2-yl}methyl)bicyclo[2.2.2]octan-1-yl]-1,3,4-thiadiazol-2-yl}-4-[(oxan-4-yl)amino]pyridin-2-yl)pyrrolo[1,2-b]pyridazine-3-carbonitrile]	64	25
–	N#Cc1cnn2c(-c3cc(NC4CCOCC4)c(-c4nnc(N5CCN(CC6CCN(c7ccc(N8CCC(=O)NC8=O)cc7)C6)CC5)s4)cn3)ccc2c1 (racemic) [Example 91, rac-7-{5-[5-(4-{[(3R)-1-[4-(2,4-dioxo-1,3-diazinan-1-yl)phenyl]pyrrolidin-3-yl]methyl}piperazin-1-yl)-1,3,4-thiadiazol-2-yl]-4-[(oxan-4-yl)amino]pyridin-2-yl}pyrrolo[1,2-b]pyridazine-3-carbonitrile]	97	32
–	N#Cc1cnn2c(-c3cc(N[C@H]4CCOC4)c(-c4nnc(N5CCN(CC6CCN(c7ccc(C8CCC(=O)NC8=O)cn7)CC6)CC5)s4)cn3)ccc2c1 (mixture of isomers) [Example 92, 7-[5-(5-{4-[(1-{5-[(3RS)-2,6-dioxopiperidin-3-yl]pyridin-2-yl}piperidin-4-yl)methyl]piperazin-1-yl}-1,3,4-thiadiazol-2-yl)-4-{[(3S)-oxolan-3-yl]amino}pyridin-2-yl]pyrrolo[1,2-b]pyridazine-3-carbonitrile]	24	114
–	N#Cc1cnn2c(-c3cc(N[C@@H]4CCOC4)c(-c4nnc(N5CC6CCC(C5)N6CC5CCN(c6ccc(C7CCC(=O)NC7=O)cn6)CC5)s4)cn3)ccc2c1 (mixture of isomers) [Example 94, 7-[5-(5-{8-[(1-{5-[(3RS)-2,6-dioxopiperidin-3-yl]pyridin-2-yl}piperidin-4-yl)methyl]-3,8-diazabicyclo[3.2.1]octan-3-yl}-1,3,4-thiadiazol-2-yl)-4-{[(3R)-oxolan-3-yl]amino}pyridin-2-yl]pyrrolo[1,2-b]pyridazine-3-carbonitrile]	10	114
–	N#Cc1cnn2c(-c3cc(NC4CC4)c(-c4nnc(N5CC6CCC(C5)N6CC5CCN(c6ccc([C@H]7CCC(=O)NC7=O)cn6)CC5)s4)cn3)ccc2c1 (racemic) [Example 95, rac-7-[4-(cyclopropylamino)-5-(5-{8-[(1-{5-[(3R)-2,6-dioxopiperidin-3-yl]pyridin-2-yl}piperidin-4-yl)methyl]-3,8-diazabicyclo[3.2.1]octan-3-yl}-1,3,4-thiadiazol-2-yl)pyridin-2-yl]pyrrolo[1,2-b]pyridazine-3-carbonitrile]	27	108
–	N#Cc1cnn2c(-c3cc(NC4CCC4)c(-c4nnc(N5CC6CCC(C5)N6CC5CCN(c6ccc([C@H]7CCC(=O)NC7=O)cn6)CC5)s4)cn3)ccc2c1 (racemic) [Example 96, rac-7-[4-(cyclobutylamino)-5-(5-{8-[(1-{5-[(3R)-2,6-dioxopiperidin-3-yl]pyridin-2-yl}piperidin-4-yl)methyl]-3,8-diazabicyclo[3.2.1]octan-3-yl}-1,3,4-thiadiazol-2-yl)pyridin-2-yl]pyrrolo[1,2-b]pyridazine-3-carbonitrile]	83	103
–	C[C@H](C#N)Nc1cc(-c2ccc3cc(C#N)cnn23)ncc1-c1nnc(N2CCN(CC3CCN(c4ccc(C5CCC(=O)NC5=O)cc4)CC3)CC2)s1 (mixture of isomers) [Example 97, 7-(4-{[(1R)-1-cyanoethyl]amino}-5-(5-{4-[(1-{4-[(3RS)-2,6-dioxopiperidin-3-yl]phenyl}piperidin-4-yl)methyl]piperazin-1-yl}-1,3,4-thiadiazol-2-yl)pyridin-2-yl)pyrrolo[1,2-b]pyridazine-3-carbonitrile]	18	111
–	N#Cc1cnn2c(-c3cc(N[C@@H]4CCOC4)c(-c4nnc(N5CC6CCC(C5)N6CC5CCN(c6ccc(C7CCC(=O)NC7=O)cc6)CC5)s4)cn3)ccc2c1 (mixture of isomers) [Example 98, 7-[5-(5-{8-[(1-{4-[(3RS)-2,6-dioxopiperidin-3-yl]phenyl}piperidin-4-yl)methyl]-3,8-diazabicyclo[3.2.1]octan-3-yl}-1,3,4-thiadiazol-2-yl)-4-{[(3R)-oxolan-3-yl]amino}pyridin-2-yl]pyrrolo[1,2-b]pyridazine-3-carbonitrile]	16	105
–	N#Cc1cnn2c(-c3cc(NC4CC4)c(-c4nnc(N5CC6CCC(C5)N6CC5CCN(c6ccc([C@H]7CCC(=O)NC7=O)cc6)CC5)s4)cn3)ccc2c1 (racemic) [Example 99, rac-7-[4-(cyclopropylamino)-5-(5-{8-[(1-{4-[(3R)-2,6-dioxopiperidin-3-yl]phenyl}piperidin-4-yl)methyl]-3,8-diazabicyclo[3.2.1]octan-3-yl}-1,3,4-thiadiazol-2-yl)pyridin-2-yl]pyrrolo[1,2-b]pyridazine-3-carbonitrile]	56	73
95	N#Cc1cnn2c(-c3cc(NC4CCOCC4)c(-c4nnc(N5CCN(C[C@H]6[C@H]7CN(c8ccc(C9CCC(=O)NC9=O)cn8)C[C@@H]67)CC5)s4)cn3)ccc2c1 (mixture of isomers) [Example 100, 7-{5-[5-(4-{[(1RS&,5SR&,6RS&)-3-{5-[(3RS)-2,6-dioxopiperidin-3-yl]pyridin-2-yl}-3-azabicyclo[3.1.0]hexan-6-yl]methyl}piperazin-1-yl)-1,3,4-thiadiazol-2-yl]-4-[(oxan-4-yl)amino]pyridin-2-yl}pyrrolo[1,2-b]pyridazine-3-carbonitrile]	20	–
55	N#Cc1cnn2c(-c3cc(NC4CCOCC4)c(-c4nnc(N5CC6CCC(C5)N6CC5[C@H]6CN(c7ccc([C@H]8CCC(=O)NC8=O)cn7)C[C@@H]56)s4)cn3)ccc2c1 (mixture of isomers) [Example 101, 7-{5-[5-(8-{[(1RS&,5SR&,6RS&)-3-{5-[(3RS)-2,6-dioxopiperidin-3-yl]pyridin-2-yl}-3-azabicyclo[3.1.0]hexan-6-yl]methyl}-3,8-diazabicyclo[3.2.1]octan-3-yl)-1,3,4-thiadiazol-2-yl]-4-[(oxan-4-yl)amino]pyridin-2-yl}pyrrolo[1,2-b]pyridazine-3-carbonitrile]	7	–
–	CCNc1cc(-c2ccc3cc(C#N)cnn23)ncc1-c1nnc(N2CC3CCC(C2)N3CC2CCN(c3ccc([C@H]4CCC(=O)NC4=O)cc3)CC2)s1 (racemic) [Example 102, rac-7-[5-(5-{8-[(1-{4-[(3R)-2,6-dioxopiperidin-3-yl]phenyl}piperidin-4-yl)methyl]-3,8-diazabicyclo[3.2.1]octan-3-yl}-1,3,4-thiadiazol-2-yl)-4-(ethylamino)pyridin-2-yl]pyrrolo[1,2-b]pyridazine-3-carbonitrile]	42	107
–	N#Cc1cnn2c(-c3cc(NC4(C#N)CC4)c(-c4nnc(N5CC6CCC(C5)N6CC5CCN(c6ccc([C@H]7CCC(=O)NC7=O)cn6)CC5)s4)cn3)ccc2c1 (racemic) [Example 103, rac-7-{4-[(1-cyanocyclopropyl)amino]-5-(5-{8-[(1-{5-[(3R)-2,6-dioxopiperidin-3-yl]pyridin-2-yl}piperidin-4-yl)methyl]-3,8-diazabicyclo[3.2.1]octan-3-yl}-1,3,4-thiadiazol-2-yl)pyridin-2-yl}pyrrolo[1,2-b]pyridazine-3-carbonitrile]	12	106
–	N#CCNc1cc(-c2ccc3cc(C#N)cnn23)ncc1-c1nnc(N2CC3CCC(C2)N3CC2CCN(c3ccc([C@H]4CCC(=O)NC4=O)cn3)CC2)s1 (racemic) [Example 104, rac-7-{4-[(cyanomethyl)amino]-5-(5-{8-[(1-{5-[(3R)-2,6-dioxopiperidin-3-yl]pyridin-2-yl}piperidin-4-yl)methyl]-3,8-diazabicyclo[3.2.1]octan-3-yl}-1,3,4-thiadiazol-2-yl)pyridin-2-yl}pyrrolo[1,2-b]pyridazine-3-carbonitrile]	4	115
